Laboratory results: publication PMC6442109, “Novel thienopyrimidine derivatives as dual EGFR and VEGFR-2 inhibitors: design, synthesis, anticancer activity and effect on cell cycle profile” (Journal of Enzyme Inhibition and Medicinal Chemistry, 2019)
Read-outs that look alike come from different tables or passages of the source.

Tests used:
MCF-7 cell line = assay: MTT anticancer activity assay against MCF-7; conditions: for IC50: Homo sapiens, MCF7, 48 h, read-out: IC50 on MCF-7 cell line
[1] = tested on: MCF-10A (the human mammary epithelial cell line); assay: MTT cytotoxicity on normal mammary epithelial cell line; conditions: for IC50: Homo sapiens, MCF-10A, read-out: IC50 on normal mammary epithelial cell line (MCF-10A); for Selectivity index: MCF-10A versus MCF-7 tumor cell line
EGFR [2] = molecular target: T1, EGFR (Homo sapiens, UniProt P00533); assay: In vitro EGFR kinase inhibitory assay (Kinase-Glo luminescence kit)
T1 sequence (P00533 25-1210): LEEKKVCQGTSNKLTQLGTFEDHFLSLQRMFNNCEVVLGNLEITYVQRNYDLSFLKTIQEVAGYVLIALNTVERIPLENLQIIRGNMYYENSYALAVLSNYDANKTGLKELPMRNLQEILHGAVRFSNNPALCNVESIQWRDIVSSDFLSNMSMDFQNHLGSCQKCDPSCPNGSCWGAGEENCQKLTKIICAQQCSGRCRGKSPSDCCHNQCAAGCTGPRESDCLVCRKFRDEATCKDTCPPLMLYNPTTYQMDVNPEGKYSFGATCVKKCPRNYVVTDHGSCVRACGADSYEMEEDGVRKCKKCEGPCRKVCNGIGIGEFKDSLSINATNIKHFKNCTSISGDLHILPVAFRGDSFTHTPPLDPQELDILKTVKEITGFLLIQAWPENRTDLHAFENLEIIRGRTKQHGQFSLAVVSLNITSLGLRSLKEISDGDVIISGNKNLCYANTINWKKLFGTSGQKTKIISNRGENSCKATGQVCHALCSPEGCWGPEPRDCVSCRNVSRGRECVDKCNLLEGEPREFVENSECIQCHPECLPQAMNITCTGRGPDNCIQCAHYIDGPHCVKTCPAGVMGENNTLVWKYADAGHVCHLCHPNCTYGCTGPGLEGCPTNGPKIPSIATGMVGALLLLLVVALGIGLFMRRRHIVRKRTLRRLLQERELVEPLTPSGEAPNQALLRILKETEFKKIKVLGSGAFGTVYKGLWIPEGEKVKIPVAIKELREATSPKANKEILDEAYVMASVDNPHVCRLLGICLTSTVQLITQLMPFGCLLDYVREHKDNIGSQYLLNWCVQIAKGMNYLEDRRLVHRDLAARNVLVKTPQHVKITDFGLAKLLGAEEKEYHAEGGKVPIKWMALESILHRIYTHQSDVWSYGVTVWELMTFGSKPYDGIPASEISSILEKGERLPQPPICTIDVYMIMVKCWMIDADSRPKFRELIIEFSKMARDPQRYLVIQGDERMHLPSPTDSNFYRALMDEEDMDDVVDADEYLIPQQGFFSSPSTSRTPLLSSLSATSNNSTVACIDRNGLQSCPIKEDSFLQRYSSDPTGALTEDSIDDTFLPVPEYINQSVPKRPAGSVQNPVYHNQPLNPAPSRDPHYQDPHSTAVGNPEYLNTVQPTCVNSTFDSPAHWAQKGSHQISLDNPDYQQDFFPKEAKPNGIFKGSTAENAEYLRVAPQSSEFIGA

[3] = molecular target: T2, recombinant human VEGFR-2/KDR (Homo sapiens, UniProt P35968); assay: In vitro VEGFR-2 kinase inhibitory assay (ELISA kit); type: biochemical; conditions: mean of three experiments ± SD
T2 construct: purchased #7788
T2 sequence (P35968 20-1356): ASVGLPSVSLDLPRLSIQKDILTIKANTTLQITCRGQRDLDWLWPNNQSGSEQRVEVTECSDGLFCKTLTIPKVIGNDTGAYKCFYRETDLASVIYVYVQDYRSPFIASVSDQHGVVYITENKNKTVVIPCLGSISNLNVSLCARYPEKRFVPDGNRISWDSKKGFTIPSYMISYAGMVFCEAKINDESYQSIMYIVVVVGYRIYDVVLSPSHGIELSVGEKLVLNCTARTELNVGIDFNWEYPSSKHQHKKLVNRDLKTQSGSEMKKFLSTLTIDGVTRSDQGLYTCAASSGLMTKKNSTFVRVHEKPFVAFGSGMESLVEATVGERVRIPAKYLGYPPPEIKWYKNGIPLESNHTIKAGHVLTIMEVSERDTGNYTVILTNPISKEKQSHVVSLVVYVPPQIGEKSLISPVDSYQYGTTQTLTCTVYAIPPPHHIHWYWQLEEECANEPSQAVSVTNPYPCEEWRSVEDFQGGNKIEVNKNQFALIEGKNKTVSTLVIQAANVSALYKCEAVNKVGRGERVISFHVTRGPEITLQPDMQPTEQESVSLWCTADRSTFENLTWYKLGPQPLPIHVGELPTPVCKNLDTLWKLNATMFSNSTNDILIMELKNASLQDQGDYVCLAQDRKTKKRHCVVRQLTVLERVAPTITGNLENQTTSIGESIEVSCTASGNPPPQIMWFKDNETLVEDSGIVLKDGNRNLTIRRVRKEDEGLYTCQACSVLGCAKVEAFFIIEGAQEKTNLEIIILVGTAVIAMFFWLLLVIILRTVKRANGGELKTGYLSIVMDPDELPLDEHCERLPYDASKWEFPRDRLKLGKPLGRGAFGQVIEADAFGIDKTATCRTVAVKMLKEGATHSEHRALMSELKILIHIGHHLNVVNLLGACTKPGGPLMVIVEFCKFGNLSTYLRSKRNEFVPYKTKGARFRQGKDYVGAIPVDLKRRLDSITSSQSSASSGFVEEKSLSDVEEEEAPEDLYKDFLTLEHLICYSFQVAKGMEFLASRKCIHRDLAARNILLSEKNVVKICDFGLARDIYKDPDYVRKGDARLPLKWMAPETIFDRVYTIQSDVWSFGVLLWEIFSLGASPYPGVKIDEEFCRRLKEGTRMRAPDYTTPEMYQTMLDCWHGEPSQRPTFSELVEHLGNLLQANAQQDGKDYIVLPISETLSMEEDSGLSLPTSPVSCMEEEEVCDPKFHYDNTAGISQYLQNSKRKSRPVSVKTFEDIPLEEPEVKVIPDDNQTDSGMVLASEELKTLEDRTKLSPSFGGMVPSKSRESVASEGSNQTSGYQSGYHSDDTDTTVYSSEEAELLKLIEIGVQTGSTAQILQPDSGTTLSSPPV
Method: About 10 µL of 10 mM ATP was added to 1.25 mL 6 µM substrate peptide followed by dilution of the mixture with distilled water to 2.50 mL to make 2× ATP/substrate cocktail ([ATP] = 40 µM, [substrate] = 3 µm). The enzyme was immediately transferred from –80 °C to ice and was allowed to thaw on ice. Microcentrifuge was performed briefly at 4 °C and returned immediately to ice. […] About 0.6 mL of DTT/Kinase buffer was transferred to each enzyme tube to make 4× reaction mixture. […] About 25 µL of 2× ATP/substrate cocktail was added to 25 µL/well pre-incubated reaction mixture/compound. Reaction plate was incubated at room temperature for 30 min. Then, 50 µL/well stop buffer (50 mM EDTA, pH 8) was added to stop the reaction. […] About 100 µL/well primary antibody was added and incubated at room temperature for 60 min followed by washing three times with 200 µL/well PBS/T.
Appropriate dilution of HRP labeled secondary antibody in PBS/T was prepared with 1% BSA (1:500 dilution for anti-mouse IgG or 1:1000 for anti-rabbit IgG). About 100 µL/well secondary antibody solution was added and incubated at room temperature for 30 min then washed five times with 200 µL/well PBS/T followed by addition of 100 µL/well 3,3′,5,5′-tetramethylbenzidine (TMB) substrate and incubation at room temperature for 15 min and finally addition of 100 µL/well of stop solution and mix well. The absorbance was read at 450 nm with a microtiter plate reader. The values of % activity versus a series of compound concentrations (0.01 µM–0.1 µM–1 µM–10 µM) was then plotted using non-linear regression analysis of sigmoidal dose-response curve.

VEGFR-2 = conditions: Figure 1 compounds I–VII; cited from earlier work
EGFR [4] = molecular target: T1, EGFR; conditions: Figure 1 compounds I–VII; cited from earlier work
MCF-7 cells [5] = assay: Annexin V-FITC/PI apoptosis detection; type: cell-based, human; conditions: MCF-7, 0.66 µM, 24 h
Method: Apoptosis was evaluated utilizing Annexin V-FITC/PI apoptosis detection kit (Biovision, Mountain View, CA #K101-25) according to the manufacturer’s instructions after staining the cells with Annexin V fluorescein isothiocyanate (FITC) and counterstaining with propidium iodide (PI).
The cells then were centrifuged and in case of adherent cells, cells were gently trypsinized and washed once with serum-containing media followed by resuspension in 500 µL of binding buffer. About 5 µL of Annexin V-FITC and 5 µL of (PI […]) were added and incubated at room temperature for 5 min in the dark. Analyses were carried out using flow cytometer (Ex = 488 nm; Em = 530 nm) using FITC signal detector (usually FL1) and PI staining by the phycoerythrin emission signal detector (usually FL2).

MCF-7 cells [6] = assay: Cell cycle analysis, propidium iodide flow cytometry; type: cell-based, human; conditions: 24 h
Method: Cell cycle were carried out using propidium iodide flow cytometry kit (Abcam, ab139418) according to the manufacturer’s instructions. The MCF-7 cells were treated with 0.66 µM of compound 5f for 24 h. Then, the cells were washed twice with ice-cold PBS, centrifuged and fixed using ice-cold 66% (v/v) ethanol, washed with PBS, re-suspended with 0.1 mg/mL RNase and stained with 200 µL propidium iodide (PI). Finally, cells were analyzed by flow cytometry. The cell cycle distributions were calculated using Cell-Quest software (Becton Dickinson). An interference with the normal cell cycle distribution resulted upon exposure of MCF-7 cells to this compound as indicated.

IC50 (MCF-7 cell line) [µM] | melting point [°C] | IC50 (EGFR [2]) [µM] | SMILES | further results
21.1 ± 2.7 | > 300 | – | Cc1ccc(Oc2ncnc3sc4c(c23)CCCCC4)cc1 [Compound 5i, 4-(p-Tolyloxy)-6,7,8,9-tetrahydro-5H-cyclohepta[4,5]thieno[2,3-d]pyrimidine] | –
3.06 ± 0.19 | – | – | COc1cccc2c1C(=O)c1c(O)c3c(c(O)c1C2=O)C[C@@](O)(C(=O)CO)C[C@@H]3O[C@H]1C[C@H](N)[C@H](O)[C@H](C)O1 [Doxorubicin, reference compound] | IC50 [1]: 27.6 ± 1.55 µM
1.34 ± 0.07 | > 300 | 0.07 ± 0.004 | Clc1ccccc1Oc1ncnc2sc3c(c12)CCCCC3 [Compound 5d, 4-(2-Chlorophenoxy)-6,7,8,9-tetrahydro-5H-cyclohepta[4,5]thieno[2,3-d]pyrimidine] | IC50 [3]: 0.74 ± 0.025 µM
1.23 ± 0.04 | > 300 | 0.2 ± 0.011 | Fc1ccc(Oc2ncnc3sc4c(c23)CCCCC4)cc1 [Compound 5g, 4-(4-Fluorophenoxy)-6,7,8,9-tetrahydro-5H-cyclohepta[4,5]thieno[2,3-d]pyrimidine] | –
1.98 ± 0.21 | 179 to 180 | 0.07 ± 0.003 | Nc1cccc(Oc2ncnc3sc4c(c23)CCCCC4)c1 [Compound 5a, 3-((6,7,8,9-Tetrahydro-5H-cyclohepta[4,5]thieno[2,3-d]pyrimidin-4-yl)oxy)aniline] | IC50 [3]: 1.71 ± 0.062 µM
2.76 ± 0.19 | 166 to 169 | 0.46 ± 0.018 | O=[N+]([O-])c1ccc(Oc2ncnc3sc4c(c23)CCCCC4)cc1 [Compound 5k, 4-(4-Nitrophenoxy)-6,7,8,9-tetrahydro-5H-cyclohepta[4,5]thieno[2,3-d]pyrimidine] | –
2.76 ± 0.33 | 115 to 116 | 0.069 ± 0.003 | Clc1ccc(Oc2ncnc3sc4c(c23)CCCCC4)cc1 [Compound 5e, 4-(4-Chlorophenoxy)-6,7,8,9-tetrahydro-5H-cyclohepta[4,5]thieno[2,3-d]pyrimidine] | IC50 [3]: 0.34 ± 0.013 µM
5.01 ± 0.31 | > 300 | – | COc1ccc(Oc2ncnc3sc4c(c23)CCCCC4)cc1 [Compound 5j, 4-(4-Methoxyphenoxy)-6,7,8,9-tetrahydro-5H-cyclohepta[4,5]thieno[2,3-d]pyrimidine] | –
11 ± 1.24 | 260 to 262 | – | Cc1ccnc(NS(=O)(=O)c2ccc(Nc3ncnc4sc5c(c34)CCCCC5)cc2)n1 [Compound 4c, N-(4-Methylpyrimidin-2-yl)-4-((6,7,8,9-tetrahydro-5H-cyclohepta[4,5]thieno[2,3-d]pyrimidin-4-yl)amino)benzenesulfonamide] | –
7.12 ± 0.55 | 243 to 245 | – | O=S(=O)(Nc1ncccn1)c1ccc(Nc2ncnc3sc4c(c23)CCCCC4)cc1 [Compound 4b, N-(Pyrimidin-2-yl)-4-((6,7,8,9-tetrahydro-5H-cyclohepta[4,5]thieno[2,3-d]pyrimidin-4-yl)amino)benzenesulfonamide] | –
– | – | – | COc1cc2nc(Cl)nc(Nc3ccc(C(N)=O)cc3)c2cc1OC [VI] | IC50 (VEGFR-2): 1.17 µM
39.8 ± 4.11 | 271 to 272 | – | NS(=O)(=O)c1ccc(Nc2ncnc3sc4c(c23)CCCCC4)cc1 [Compound 4a, 4-((6,7,8,9-Tetrahydro-5H-cyclohepta[4,5]thieno[2,3-d]pyrimidin-4-yl)amino)benzenesulfonamide] | –
– | – | – | COC(=O)Nc1ccc(Nc2ncnc3cc(OC)c(OC)cc23)cc1 [II] | IC50 (VEGFR-2): 5.8 µM
– | – | – | O=C(Nc1cccc(Br)c1)Nc1ccc(Oc2ncnc3sc4c(c23)CCCC4)cc1Cl [VII] | IC50 (VEGFR-2): 0.015 µM
– | – | – | COc1cc2ncnc(Nc3ccc(Br)cc3F)c2cc1OC [I] | IC50 (VEGFR-2): 1.65 µM
6.65 ± 0.41 | 135 to 136 | – | Brc1ccc(Oc2ncnc3sc4c(c23)CCCCC4)cc1 [Compound 5c, 4-(4-Bromophenoxy)-6,7,8,9-tetrahydro-5H-cyclohepta[4,5]thieno[2,3-d]pyrimidine] | –
1.47 ± 0.11 | > 300 | 0.042 ± 0.002 | Nc1ccc(Oc2ncnc3sc4c(c23)CCCCC4)cc1 [Compound 5b, 4-((6,7,8,9-Tetrahydro-5H-cyclohepta[4,5]thieno[2,3-d]pyrimidin-4-yl)oxy)aniline] | folds more potent than lapatinib, EGFR inhibitory activity (EGFR [2]): 1.24 folds; IC50 [3]: 0.51 ± 0.016 µM; IC50 [1]: 72.7 ± 3.98 µM; Selectivity index [1]: 49.5
– | – | – | CCOC(=O)Nc1ccc(Nc2ncnc3cc(OC)c(OC)cc23)cc1Cl [III] | IC50 (EGFR [4]): 0.9 µM
87.4 ± 5.4 | > 300 | – | Cc1ccccc1Oc1ncnc2sc3c(c12)CCCCC3 [Compound 5h, 4-(o-Tolyloxy)-6,7,8,9-tetrahydro-5H-cyclohepta[4,5]thieno[2,3-d]pyrimidine] | –
0.66 ± 0.05 | – | 0.028 ± 0.003 | Cc1cc(Oc2ncnc3sc4c(c23)CCCCC4)ccc1Cl [Compound 5f, 4-(4-Chloro-3-methylphenoxy)-6,7,8,9-tetrahydro-5H-cyclohepta[4,5]thieno[2,3-d]pyrimidine] | folds more potent than erlotinib, EGFR inhibitory activity (EGFR [2]): 1.18 folds; folds more potent than doxorubicin, anticancer activity (MCF-7 cell line; MCF-7): 4.64 folds; folds more potent than erlotinib, anticancer activity (MCF-7 cell line; MCF-7): 1.73 folds; IC50 [3]: 1.23 ± 0.028 µM; IC50 [1]: 153 ± 7.57 µM; Selectivity index [1]: 232.1; Apoptosis %Total (MCF-7 cells [5]): 17.58%; increase in annexin-V positive cells (early apoptosis) more than control (MCF-7 cells [5]): 6.07 folds; increase in late apoptotic cells more than control (MCF-7 cells [5]): about 24.66 folds; increase in necrotic cells more than control (MCF-7 cells [5]): ~12.48 folds; Apoptosis %Early (MCF-7 cells [5]; lower right quadrant): 5.34%; Necrosis (MCF-7 cells [5]; upper left quadrant): 2.87%; Apoptosis %Late (MCF-7 cells [5]; upper right quadrant): 9.37%; %G0–G1 (MCF-7 cells [6]; MCF-7, 0.66 µM): 34.19%; %G2/M (MCF-7 cells [6]; MCF-7, 0.66 µM): 32.65%; %Pre-G1 (MCF-7 cells [6]; MCF-7, 0.66 µM): 17.58%; %S (MCF-7 cells [6]; MCF-7, 0.66 µM): 33.16%; increase in percentage of cells at G2/M phase compared to control (MCF-7 cells [6]; MCF-7, IC50 concentration): 4.75 folds; increase in percentage of cells at pre-G1 phase compared to control (MCF-7 cells [6]; MCF-7, IC50 concentration): 11.80 folds
– | – | – | COc1cc2nc(Cl)nc(Nc3ccc(S(=O)(=O)Nc4nccs4)cc3)c2cc1OC [IV] | IC50 (VEGFR-2): 7.79 µM
– | – | – | COc1cc2nc(Cl)nc(Nc3ccc(S(N)(=O)=O)cc3)c2cc1OC [V] | IC50 (VEGFR-2): 1.02 µM

SMILES | IC50 (MCF-7 cell line) [µM] | melting point [°C] | IC50 (EGFR [2]) [µM] | further results
C#Cc1cccc(Nc2ncnc3cc(OCCOC)c(OCCOC)cc23)c1 [Erlotinib, reference compound] | 1.14 ± 0.05 | – | – | IC50 [1]: 69.4 ± 4.24 µM
